Measurements published in patent US20260242395A1, “AMINOHETEROARYL KINASE INHIBITORS” (ALLORION THERAPEUTICS INC, priority 2022, published 2026).

Tests used:
[1] = target: T1, CDK4/CyclinD1 (Homo sapiens, UniProt P11802); assay: CDK4/CyclinD1 kinase inhibitory activity (Caliper mobility shift); assay type: biochemical; conditions: enzyme 20 nM, ATP 672 uM, 28° C. 30 min; read-out: CDK4/Cyclin D1 IC50
T1 construct: purchased ProQinase 0142-0143-1
Protocol: CDK4/CyclinD1 kinase inhibitory activity (IC50): 5 μl of various dilutions of test compound in 1× kinase buffer (20 mM HEPES, pH 7.5, 10 mM MgCl2, 2 mM DTT and 0.01% Triton X-100) was mixed with 10 μL of either CDK4/Cyclin D1 (ProQinase, 0142-0143-1 #, final concentration 20 nM in 1× Kinase buffer) or in 384 plates and incubated at room temperature for 10 min. To initiate each reaction, 10 μL of peptide solution containing fluorescently-labeled-peptide 8(5-FAM-IPTSPITTTYFFFKKK-COOH, GL, 112396 #, final concentration 3000 nM) and ATP (final concentration 672 uM for CDK4/CyclinD1) in 1×Kinase buffer was added to each of the wells containing test compound and CDK4/CyclinD1 mixture. The reaction is then allowed to proceed at 28° C. for 30 min and terminated by the addition of 25 μL stop buffer (100 mM HEPES pH 7.5, 50 mM EDTA, 0.2% Coating Reagent #3 (Perkin Elmer, 760050 #) and 0.015% Brij-35).
(§1) Following the kinase reaction, Caliper EZ reader II (Downstream voltages: −500V, Upstream voltages: −2250V, Base pressure −0.5 PSI, Screen pressure −1.2 PSI) was used to separate the phosphorylated (product) and the unphosphorylated (substrate) fluorescently-labeled peptide 8 based on their different mobility. Both substrate and product were measured and the ratio of these values were used to generate % conversion by Caliper EZ reader II. These conversion values were then transformed into % inhibition of kinase activity using the formula: % Inhibition=[(MA−X)/(MA−MI)]×100% where MA=conversion value of DMSO only controls, MI=conversion value of no enzyme controls and X=conversion value at any given compound dose. IC50 values were then calculated by plotting dose-response curves and then using the XLfit application in Excel software.

[2] = target: T2, CDK6/CyclinD3 (Homo sapiens, UniProt Q00534); assay: CDK6/CyclinD3 kinase inhibitory activity (Caliper mobility shift); assay type: biochemical; conditions: enzyme 15 nM, ATP 800 μM, 28° C. 30 min; read-out: CDK6/Cyclin D3 IC50
T2 construct: purchased Carna 04-107
T2 sequence (Q00534 whole entry): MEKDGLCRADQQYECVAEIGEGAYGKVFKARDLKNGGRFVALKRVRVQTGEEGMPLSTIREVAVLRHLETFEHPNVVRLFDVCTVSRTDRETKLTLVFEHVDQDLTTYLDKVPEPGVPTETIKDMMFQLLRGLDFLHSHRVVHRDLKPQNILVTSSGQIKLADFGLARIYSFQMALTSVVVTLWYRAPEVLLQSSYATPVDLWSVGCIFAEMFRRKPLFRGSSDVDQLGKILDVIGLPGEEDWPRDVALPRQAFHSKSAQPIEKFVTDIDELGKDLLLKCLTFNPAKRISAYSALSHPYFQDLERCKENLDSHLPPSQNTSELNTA
T2 sequence (P30281 whole entry partner): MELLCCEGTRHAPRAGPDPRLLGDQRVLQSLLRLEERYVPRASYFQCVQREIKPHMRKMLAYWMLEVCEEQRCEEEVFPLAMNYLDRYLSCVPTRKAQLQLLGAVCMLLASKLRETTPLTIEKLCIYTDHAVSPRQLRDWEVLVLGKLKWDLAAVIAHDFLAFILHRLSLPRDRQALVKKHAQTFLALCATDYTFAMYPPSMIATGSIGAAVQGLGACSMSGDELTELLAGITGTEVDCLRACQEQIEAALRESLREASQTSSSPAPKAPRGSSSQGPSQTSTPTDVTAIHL
Protocol: CDK6/CyclinD3 kinase inhibitory activity (IC50): 5 μl of various dilutions of test compound in 1× kinase buffer (50 mM HEPES pH 7.5, 10 mM MgCl2, 2 mM DTT and 0.01% Brij-35) was mixed with 10 μL of CDK6/CyclinD3 (Carna, 04-107 #, final concentration 15 nM in 1× Kinase buffer) in 384 plates and incubated at room temperature for 10 min. To initiate each reaction, 10 μL of peptide solution containing fluorescently-labeled -peptide 8(5-FAM-IPTSPITTTYFFFKKK-COOH, GL, 112396 #, final concentration 3000 nM) and ATP (final concentration 800 μM for CDK6/CyclinD3 in 1× Kinase buffer was added to each of the wells containing test compound and CDK6/CyclinD3. The reaction is then allowed to proceed at 28° C. for 30 min and terminated by the addition of 25 μL stop buffer (100 mM HEPES pH 7.5, 50 mM EDTA, 0.2% Coating Reagent #3 (Perkin Elmer, 760050 #) and 0.015% Brij-35).
as §1

T1 sequence (P11802 whole entry): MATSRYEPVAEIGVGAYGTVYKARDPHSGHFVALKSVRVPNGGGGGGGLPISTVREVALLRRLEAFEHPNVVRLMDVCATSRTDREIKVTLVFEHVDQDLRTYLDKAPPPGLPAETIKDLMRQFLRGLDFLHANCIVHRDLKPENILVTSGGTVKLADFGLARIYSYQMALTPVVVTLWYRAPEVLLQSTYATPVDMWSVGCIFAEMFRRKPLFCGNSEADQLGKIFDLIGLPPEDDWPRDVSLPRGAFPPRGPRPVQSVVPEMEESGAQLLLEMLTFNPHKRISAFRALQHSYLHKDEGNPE
T1 sequence (P24385 whole entry partner): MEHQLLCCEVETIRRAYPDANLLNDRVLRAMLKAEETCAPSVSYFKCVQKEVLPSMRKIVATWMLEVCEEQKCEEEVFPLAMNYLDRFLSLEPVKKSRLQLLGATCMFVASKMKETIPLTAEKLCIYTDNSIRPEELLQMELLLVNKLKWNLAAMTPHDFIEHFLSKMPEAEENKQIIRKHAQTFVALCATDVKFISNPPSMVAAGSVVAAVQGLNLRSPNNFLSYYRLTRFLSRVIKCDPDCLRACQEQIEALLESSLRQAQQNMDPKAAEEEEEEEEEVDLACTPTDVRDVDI

CCc1c(C(C)(C)O)nnc2c(F)cc(-c3nc(N[C@@H]4CCOC[C@H]4O)ncc3Cl)cc12 [Example 61, (3S,4R)-4-((5-chloro-4-(4-ethyl-8-fluoro-3-(2-hydroxypropan-2-yl)cinnolin-6-yl)pyrimidin-2-yl)amino)tetrahydro-2H-pyran-3-ol]
IC50 [1]: 0.01 to 0.1 µM | IC50 [2]: 0.1 to 1 µM

[2H]C1([2H])NC(C)(C)Cc2cnc3c(F)cc(-c4nc(N[C@@H]5CCOC[C@H]5O)ncc4F)cc3c21 [Example 62, (3S,4R)-4-((5-fluoro-4-(7-fluoro-3,3-dimethyl-1,2,3,4-tetrahydrobenzo[c][2,6]naphthyridin-9-yl-1,1-d2)pyrimidin-2-yl)amino)tetrahydro-2H-pyran-3-ol]
IC50 [1]: < 0.01 µM | IC50 [2]: 0.01 to 0.1 µM

[2H]c1nc2c(F)cc(-c3ccnc(N[C@@H]4CCOC[C@H]4O)n3)cc2c2c1CC1(CC1)NC2 [Example 66]
IC50 [1]: 0.01 to 0.1 µM | IC50 [2]: 0.1 to 1 µM

Cc1nc2c(F)cc(-c3nc(N[C@@H]4CCOC[C@H]4O)ncc3Cl)cc2c2c1CC1(CC1)NC2 [Example 69]
IC50 [1]: < 0.01 µM | IC50 [2]: 0.1 to 1 µM

[2H]c1nc2c(F)cc(-c3nc(N[C@@H]4CCOC[C@H]4O)ncc3F)cc2c2c1CC1(CC1)NC2 [Example 70]
IC50 [1]: < 0.01 µM | IC50 [2]: 0.1 to 1 µM

[2H]c1nc(N[C@@H]2CCOC[C@H]2O)nc(-c2cc(F)c3nc([2H])c4c(c3c2)CNC2(CC2)C4)c1F [Example 71]
IC50 [1]: < 0.01 µM | IC50 [2]: 0.1 to 1 µM

[2H]c1nc2c(F)cc(-c3nc(N[C@@H]4CCOC[C@H]4O)ncc3Cl)cc2c2c1CC1(CC1)NC2 [Example 72]
IC50 [1]: < 0.01 µM | IC50 [2]: 0.1 to 1 µM

Cc1cc(C(C)(C)O)c2cc(-c3nc(N[C@@H]4CCOC[C@H]4O)ncc3Cl)cc(F)c2n1 [Example 75]
IC50 [1]: 0.01 to 0.1 µM | IC50 [2]: 0.1 to 1 µM

Cc1cc(C(C)(C)O)c2cc(-c3nc(N[C@@H]4CCOC[C@H]4O)ncc3F)cc(F)c2n1 [Example 76]
IC50 [1]: 0.01 to 0.1 µM | IC50 [2]: 0.1 to 1 µM

Cc1nc2c(F)cc(-c3cc(N[C@@H]4CCOC[C@H]4O)ncc3F)cc2cc1C(C)(C)O [Example 78]
IC50 [1]: < 0.01 µM | IC50 [2]: 0.1 to 1 µM

CC(C)(O)c1cnc2c(F)cc(-c3nc(Nc4ccc(C(=O)CO)cn4)ncc3F)cc2c1Cl [Example 80]
IC50 [1]: 0.01 to 0.1 µM | IC50 [2]: ≥ 1 µM

Cc1c(C(C)(C)O)nnc2c(F)cc(-c3nc(N[C@@H]4CCOC[C@H]4O)ncc3Cl)cc12 [Example 87]
IC50 [1]: 0.01 to 0.1 µM | IC50 [2]: 0.1 to 1 µM

Cc1nc2c(F)cc(-c3nc(N[C@@H]4CCOC[C@H]4O)ncc3F)cc2c2c1CC(C)(C)NC2 [Example 92]
IC50 [1]: < 0.01 µM | IC50 [2]: 0.1 to 1 µM

[2H]c1nc(N[C@@H]2CCOC[C@H]2O)nc(-c2cc(F)c3nc([2H])c(C(C)(C)O)c(C)c3c2)c1F [Example 95]
IC50 [1]: < 0.01 µM | IC50 [2]: 0.01 to 0.1 µM

Cc1cc(C(C)(C)O)nc2c(F)cc(-c3nc(N[C@@H]4CCOC[C@H]4O)ncc3F)cc12 [Example 96]
IC50 [1]: 0.01 to 0.1 µM | IC50 [2]: ≥ 1 µM

CC(C)(O)c1cnc2c(F)cc(-c3ccnc(N[C@@H]4CCOC[C@H]4O)n3)cc2c1Cl [Example 97]
IC50 [1]: 0.01 to 0.1 µM | IC50 [2]: 0.1 to 1 µM

Cc1nc2c(F)cc(-c3ccnc(N[C@@H]4CCOC[C@H]4O)n3)cc2c2c1CC(C)(C)NC2 [Example 99]
IC50 [1]: 0.01 to 0.1 µM | IC50 [2]: ≥ 1 µM

[2H]c1nc2c(F)cc(-c3ccnc(N[C@@H]4CCOC[C@H]4O)n3)cc2c2c1CC(C)(C)NC2 [Example 101]
IC50 [1]: < 0.01 µM | IC50 [2]: 0.1 to 1 µM

[2H]c1nc(N[C@@H]2CCOC[C@H]2O)nc(-c2cc(F)c3nc(C)c4c(c3c2)CNC(C)(C)C4)c1Cl [Example 103]
IC50 [1]: < 0.01 µM | IC50 [2]: 0.1 to 1 µM

Cc1cnc(N[C@@H]2CCOC[C@H]2O)nc1-c1cc(F)c2nc(C)c3c(c2c1)CNC(C)(C)C3 [Example 104]
IC50 [1]: 0.01 to 0.1 µM | IC50 [2]: ≥ 1 µM

[2H]c1nc(N[C@@H]2CCOC[C@H]2O)nc(-c2cc(F)c3nc(C)c4c(c3c2)CNC(C)(C)C4)c1F [Example 105]
IC50 [1]: < 0.01 µM | IC50 [2]: 0.1 to 1 µM

CC1(C)NCCc2cnc3c(F)cc(-c4nc(N[C@@H]5CCOC[C@H]5O)ncc4Cl)cc3c21 [Example 109]
IC50 [1]: < 0.01 µM | IC50 [2]: 0.1 to 1 µM

[2H]C1([2H])c2cnc3c(F)cc(-c4nc(N[C@@H]5CCOC[C@H]5O)ncc4F)cc3c2CNC1(C)C [Example 110]
IC50 [1]: < 0.01 µM | IC50 [2]: 0.1 to 1 µM
